This note sets out measurements from patent US20140011799A1 (Bristol-Myers Squibb Company, priority 2012, published 2014).

The target in test [1] is T1, hepatic lipase (HL) (Homo sapiens, UniProt P11150).
T1 construct: made in house; host or cells: COS cells (conditioned medium, partially purified)
T1 sequence (P11150 23-499): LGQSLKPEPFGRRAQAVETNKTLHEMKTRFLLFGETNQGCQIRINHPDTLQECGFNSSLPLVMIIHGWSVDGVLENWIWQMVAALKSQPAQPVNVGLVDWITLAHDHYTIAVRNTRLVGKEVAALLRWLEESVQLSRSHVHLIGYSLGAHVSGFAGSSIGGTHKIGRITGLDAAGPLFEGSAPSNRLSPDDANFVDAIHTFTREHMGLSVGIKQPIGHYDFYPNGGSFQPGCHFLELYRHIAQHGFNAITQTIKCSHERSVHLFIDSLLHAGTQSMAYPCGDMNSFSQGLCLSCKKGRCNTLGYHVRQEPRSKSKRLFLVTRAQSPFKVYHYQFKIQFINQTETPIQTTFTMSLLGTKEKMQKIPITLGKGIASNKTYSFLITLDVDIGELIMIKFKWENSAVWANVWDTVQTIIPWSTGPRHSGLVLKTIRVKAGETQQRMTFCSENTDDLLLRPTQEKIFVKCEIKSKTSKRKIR
Put plainly: Hepatic lipase (HL) enzymatic assay, fluorescent substrate A10070 in DMPG vesicles. Conditions: HL partially purified from conditioned media of COS cells; compound preincubated 30 min at 37° C; read-out: HL IC50. The test is classed as biochemical. In outline:
(§1)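 EL from conditioned medium of HT-1080 cells engineered to overexpress endogenous EL; HL partially purified from conditioned medium of HL-overexpressing COS cells. Enzyme preincubated with compound 30 min at 37° C in 50 mM HEPES pH 8.0, 50 mM NaCl, 1 mM CaCl2; DMPG vesicles carrying FRET substrate (0.11 mole fraction) then added.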

Test [2] has as its target T2, Endothelial lipase (EL) (Homo sapiens, UniProt Q9Y5X9).
T2 construct: HT-1080 cells that were transformed using RAGE technology (Athersys) to overexpress endogenous EL; endogenous in cells; conditioned medium used
T2 sequence (Q9Y5X9 21-500): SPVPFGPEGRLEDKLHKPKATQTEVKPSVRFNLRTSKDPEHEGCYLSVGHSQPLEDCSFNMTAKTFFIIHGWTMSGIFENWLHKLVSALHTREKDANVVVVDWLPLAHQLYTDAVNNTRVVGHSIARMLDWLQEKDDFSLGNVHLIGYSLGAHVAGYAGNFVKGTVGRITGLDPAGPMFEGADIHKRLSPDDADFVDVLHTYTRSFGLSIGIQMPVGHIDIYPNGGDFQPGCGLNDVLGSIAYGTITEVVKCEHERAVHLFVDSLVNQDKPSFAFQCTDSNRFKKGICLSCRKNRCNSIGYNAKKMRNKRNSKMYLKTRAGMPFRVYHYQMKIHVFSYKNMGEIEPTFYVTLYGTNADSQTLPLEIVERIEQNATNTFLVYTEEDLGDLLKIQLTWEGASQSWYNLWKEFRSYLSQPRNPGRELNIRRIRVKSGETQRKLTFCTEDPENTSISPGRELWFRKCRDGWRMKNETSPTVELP
Kind of test: Endothelial lipase (EL) enzymatic assay, fluorescent substrate A10070 in DMPG vesicles. The test is classed as biochemical. Conditions: EL from conditioned media of HT-1080 cells; compound preincubated 30 min at 37° C; read-out: EL IC50. Summed up: as §1

Structures are written as SMILES. pIC50: −log10 of the molar value.

`CS(=O)(=O)C(c1nnc(CNS(N)(=O)=O)o1)c1nc2ccc(-c3cccc(C(=O)N4CC(O)C4)c3)cc2s1` (centres unmarked) [Example 252, N-{[5-({6-[3-(3-hydroxyazetidine-1-carbonyl)phenyl]-1,3-benzothiazol-2-yl} (methanesulfonyl)methyl)-1,3,4-oxadiazol-2-yl]methyl}aminosulfonamide]: the pIC50 is 7.66 in test [1] and 8.00 in test [2].
The like results for `CS(=O)(=O)C(c1nnc(CNS(N)(=O)=O)o1)c1nc2ccc(-c3cccc(C(=O)Nc4nnc(C(F)(F)F)o4)c3)cc2s1` (centres unmarked) [Example 253, 3-{2-[methanesulfonyl({5-[(sulfamoylamino)methyl]-1,3,4-oxadiazol-2-yl})methyl]-1,3-benzothiazol-6-yl}-N-[5-(trifluoromethyl)-1,3,4-oxadiazol-2-yl] benzamide] were, in that order, 7.21 and 8.15.
The corresponding values for `CS(=O)(=O)C(c1nnc(CNS(N)(=O)=O)o1)c1nc2ccc(-c3cccc(C(=O)N4CCC(F)(F)CC4)c3)cc2s1` (centres unmarked) [Example 254, N-{[5-({6-[3-(4,4-difluoropiperidine-1-carbonyl)phenyl]-1,3-benzothiazol-2-yl} (methanesulfonyl)methyl)-1,3,4-oxadiazol-2-yl]methyl} aminosulfonamide] are 7.77 and 8.30.
On to `CS(=O)(=O)C(c1nnc(CNS(N)(=O)=O)o1)c1nc2ccc(-c3cccc(C(=O)N4CCC(O)CC4)c3)cc2s1` (centres unmarked) [Example 255, N-{[5-({6-[3-(4-hydroxypiperidine-1-carbonyl)phenyl]-1,3-benzothiazol-2-yl} (methanesulfonyl)methyl)-1,3,4-oxadiazol-2-yl]methyl} aminosulfonamide], for which the pIC50 is 7.34 in test [1] and 8.70 in test [2].
Turning to `CS(=O)(=O)C(c1nnc(CNS(N)(=O)=O)o1)c1nc2ccc(-c3cccc(C(=O)Nc4nncs4)c3)cc2s1` (centres unmarked) [Example 256, 3-{2-[methanesulfonyl({5-[(sulfamoylamino)methyl]-1,3,4-oxadiazol-2-yl})methyl]-1,3-benzothiazol-6-yl}-N-(1,3,4-thiadiazol-2-yl)benzamide], the negative-log IC50 (pIC50) was 7.80 in test [1] and 8.70 in test [2].
The corresponding values for `CS(=O)(=O)C(c1nnc(CNS(N)(=O)=O)o1)c1nc2ccc(-c3cccc(C(=O)NCCO)c3)cc2s1` (centres unmarked) [Example 257, N-(2-hydroxyethyl)-3-{2-[methanesulfonyl({5-[(sulfamoylamino)methyl]-1,3,4-oxadiazol-2-yl})methyl]-1,3-benzothiazol-6-yl}benzamide] are 7.54 and 8.00.
The corresponding values for `CS(=O)(=O)C(c1nnc(CNS(N)(=O)=O)o1)c1nc2ccc(-c3cccc(C(=O)NC4CCC(O)CC4)c3)cc2s1` (centres unmarked) [Example 258, N-(4-hydroxycyclohexyl)-3-{2-[methanesulfonyl({5-[(sulfamoylamino)methyl]-1,3,4-oxadiazol-2-yl})methyl]-1,3-benzothiazol-6-yl}benzamide] are 7.46 and 8.10.
For the compound `CC(C)NC(=O)c1cccc(-c2ccc3nc(C(c4nnc(CNS(N)(=O)=O)o4)S(C)(=O)=O)sc3c2)c1` (centres unmarked) [Example 259, 3-{2-[methanesulfonyl({5-[(sulfamoylamino)methyl]-1,3,4-oxadiazol-2-yl})methyl]-1,3-benzothiazol-6-yl}-N-(propan-2-yl) benzamide], the negative-log IC50 (pIC50) is 7.43 in test [1] and 8.10 in test [2].
Consider `CC(C)(C)CNC(=O)c1cccc(-c2ccc3nc(C(c4nnc(CNS(N)(=O)=O)o4)S(C)(=O)=O)sc3c2)c1` (centres unmarked) [Example 260, N-(2,2-dimethylpropyl)-3-{2-[methanesulfonyl({5-[(sulfamoylamino)methyl]-1,3,4-oxadiazol-2-yl})methyl]-1,3-benzothiazol-6-yl}benzamide], for which the pIC50 was 8.15 in test [1] and 8.52 in test [2].
Regarding `CS(=O)(=O)C(c1nnc(CNS(N)(=O)=O)o1)c1nc2ccc(-c3cccc(C(=O)NC4CCC4)c3)cc2s1` (centres unmarked) [Example 261, N-cyclobutyl-3-{2-[methanesulfonyl({5-[(sulfamoylamino)methyl]-1,3,4-oxadiazol-2-yl})methyl]-1,3-benzothiazol-6-yl}benzamide], the pIC50 in test [1] was 8.30; in test [2] it was 8.52.
For the compound `COCCNC(=O)c1cccc(-c2ccc3nc(C(c4nnc(CNS(N)(=O)=O)o4)S(C)(=O)=O)sc3c2)c1` (centres unmarked) [Example 262, 3-{2-[methanesulfonyl({5-[(sulfamoylamino)methyl]-1,3,4-oxadiazol-2-yl})methyl]-1,3-benzothiazol-6-yl}-N-(2-methoxyethyl) benzamide], the negative-log IC50 (pIC50) in test [1] is 7.35; in test [2], 7.85.
As for `CS(=O)(=O)C(c1nnc(CNS(N)(=O)=O)o1)c1nc2ccc(-c3cccc(C(=O)Nc4cccnc4)c3)cc2s1` (centres unmarked) [Example 263, 3-{2-[methanesulfonyl({5-[(sulfamoylamino)methyl]-1,3,4-oxadiazol-2-yl})methyl]-1,3-benzothiazol-6-yl}-N-(pyridin-3-yl) benzamide], the pIC50 in test [1] was 7.59; in test [2] it was 8.40.
The like results for `CS(=O)(=O)C(c1nnc(CNS(N)(=O)=O)o1)c1nc2ccc(-c3cccc(C(=O)N4CCC4)c3)cc2s1` (centres unmarked) [Example 264, N-{[5-({6-[3-(azetidine-1-carbonyl)phenyl]-1,3-benzothiazol-2-yl} (methanesulfonyl)methyl)-1,3,4-oxadiazol-2-yl]methyl}aminosulfonamide] were, in that order, 7.43 and 7.72.
The corresponding values for `C#CCNC(=O)c1cccc(-c2ccc3nc(C(c4nnc(CNS(N)(=O)=O)o4)S(C)(=O)=O)sc3c2)c1` (centres unmarked) [Example 265, 3-{2-[methanesulfonyl({5-[(sulfamoylamino)methyl]-1,3,4-oxadiazol-2-yl})methyl]-1,3-benzothiazol-6-yl}-N-(prop-2-yn-1-yl) benzamide] are 7.72 and 8.22.
With `CS(=O)(=O)C(c1nnc(CNS(N)(=O)=O)o1)c1nc2ccc(-c3cccc(C(=O)N4CC[C@H](O)C4)c3)cc2s1` (stereo partly drawn) [Example 266, N-({5-[(6-{3-[(3S)-3-hydroxypyrrolidine-1-carbonyl]phenyl}-1,3-benzothiazol-2-yl) (methanesulfonyl)methyl]-1,3,4-oxadiazol-2-yl}methyl)aminosulfonamide], the negative-log IC50 (pIC50) was 7.03 in test [1] and 7.89 in test [2].
As to `COC1CN(C(=O)c2cccc(-c3ccc4nc(C(c5nnc(CNS(N)(=O)=O)o5)S(C)(=O)=O)sc4c3)c2)C1` (centres unmarked) [Example 267, N-({5-[methanesulfonyl({6-[3-(3-methoxyazetidine-1-carbonyl)phenyl]-1,3-benzothiazol-2-yl})methyl]-1,3,4-oxadiazol-2-yl}methyl)aminosulfonamide], the pIC50 was 7.39 in test [1] and 7.85 in test [2].
